One experiment has as its system GB126 cells. The experiment in a line: γ-H2AX foci immunofluorescence. The class given is cell-based, human. The settings on record: 86 nM QST, value per individual nucleus, image series of replicate experiments. The procedure: (§1) To test the DNA-damaging effects of QST in GBM cells, we treated 2 independent GSC lines with QST for 72 hours at the IC50 and analyzed changes in the levels of phosphorylated histone H2AX (γ-H2AX), a marker for DNA double-strand breaks (DSBs) ([27]). […]
(§2) anti-GAPDH (1:1000, Cell Signaling Technologies, 97166), rabbit anti-cleaved poly (ADP-ribose) polymerase Asp 214 (1:1000, Cell Signaling, 9541), rabbit anti-BDNF (1:1000, Abcam, ab108319) and mouse anti- β-actin (1:1000, Bio-Rad, MCA5775GA). Membranes were probed with fluorophore-conjugated anti-mouse or anti-rabbit secondary antibodies (1:10,000; ThermoFisher Scientific). Western blots were developed using the LI-COR Odyssey CLx imaging system (LI-COR) and quantitated using the Image Studio Lite software. All Western blots are representative images from a minimum of 3 biological replicates.
(§3) Cells were grown as adherent cultures on laminin -coated glass coverslips (Thermo Fisher Scientific) in GSC media. Twenty-four hours after plating, the cells were treated with QST or DMSO diluted in GSC media. Seventy-two hours after treatment, cells were fixed with 4% paraformaldehyde for 13 minutes at room temperature. Cells were washed with phosphate-buffered saline (PBS) and subsequently permeabilized and blocked with 5% normal goat serum (Sigma Aldrich) and 0.2% Triton X -100 in PBS (blocking solution) for 30 minutes at room temperature. […]
(§4) SuperFrost Plus microscope slides using Fluoroshield Mounting Medium containing DAPI (Abcam). […] The fraction of Ki67- and Cleaved Caspase 3– positive cells were counted from 5 independent images from each condition. The mean and standard deviation were calculated from 3 biological replicates for all control and QST-treated […]
(§5) For cell cycle analysis following short -term DMSO or QST treatment in GSC cultures, approximately 1 million cells were harvested, washed in cold 1× PBS once, and fixed with 3–4 mL of ice cold 70% ethanol, added dropwise while vortexing. […] Data from all the samples were obtained using a Fortessa flow cytometer (BD Biosciences) and analyzed using the FlowJo software (TreeStar). […]

The subject of a further experiment is BT145 cells. Briefly: γ-H2AX foci immunofluorescence. It counts as cell-based, human. The note with it: BT 145, 75 nM QST, single nuclei. The procedure:
as §1, §2, §3, §4, §5

Another experiment relates to orthotopic GB126 tumors. Briefly: End-stage immunoblot of orthotopic GB126 tumors (H3K9/14ac, H3K27ac). It counts as in vivo, athymic nude mice. The note with it: endpoint PDX tumors, individual mice. The procedure:
All mice included in the survival study were processed for end-point PK and PD analyses once moribund. Plasma, tumor, and contralateral brain tissues were harvested 3 hours after dosing with 10 mg/kg QST, allowing for direct comparison of long-term treatment with the PK-PD data collected from acute (1-week) treatment with QST or combination therapy (Figure 8A). […] There were no significant differences in total or unbound drug concentrations in tumor or brain tissue between the monotherapy or combination therapy cohorts (Figure 8, E and F). Immunoblot analysis of dissected tumor samples confirmed that QST induced substantial histone H3 hyperacetylation in brain tumors, compared with untreated animals, consistent with an in vivo on-target effect (Figure 9, A and B). […]
4). Protein concentrations from whole-cell extracts were determined using the Bradford Protein Assay (ThermoFisher Scientific). Equal amounts of protein (10-40 μg/lane) were loaded onto 10% or 12.5% sodium dodecyl sulfate–polyacrylamide gel electrophoresis gels and transferred to a polyvinylidene fluoride membrane (Millipore-Sigma).
Cellular protein from frozen tissue of non–tumor-bearing mouse brains, tumor-bearing mouse brains, and flank tumors were homogenized in a prechilled glass tissue grinder (VWR) with RIPA lysis buffer containing protease and phosphatase inhibitors (ThermoFisher Scientific), with 500 uL of RIPA buffer for 10 mg of tissue. Once homogenized, the tissue lysates were kept on ice for 30 minutes and vortexed every 10 minutes. The samples were then centrifuged at 15,000 rpm for 10 minutes at 4 °C to collect the protein lysates.
Membranes were blocked with 5% nonfat milk for 1 hour at room temperature and incubated overnight with primary antibody at 4 °C. Primary antibodies used were rabbit anti-p21 […]
Signaling Technologies, 9677), mouse anti-Histone H3 (1:1000, Cell Signaling 14269), mouse
(In general: In western blotting, separated proteins are transferred to a membrane and probed.)

Values joined by “and” are separate entries in the source; they are usually repeats but may differ in a detail not shown here. Equal entries are not always repeated.

Turning to `Cn1cc(CNCC2CCN(c3ncc(C(=O)NO)cn3)CC2)c2ccccc21` [QST, quisinostat], in the experiment with GB126 cells, the “Number of foci/ Nucleus (γH2AX)” value is reported as 12. For the same compound, in the experiment on BT145 cells, the “Number of foci/ Nucleus (ƴH2AX)” value amounted to 12. The “ƴH2AX Number of foci/ Nucleus” value in the experiment on BT145 cells (replicates n=1 to n=3) worked out at 12. Also, the “H3K9/14ac levels normalized to B-actin” value was 7.331 fold change and 7.39 fold change and 6.951 fold change in the experiment on orthotopic GB126 tumors (QST + IR); 5.4 fold change and 6.4803 fold change and 5.818 fold change with orthotopic GB126 tumors (QST). The “H3K27ac levels normalized to B-actin” value in the experiment with orthotopic GB126 tumors (QST + IR) was 1.842 fold change and 4.36 fold change and 3.819 fold change; in the experiment on orthotopic GB126 tumors (QST), 4.65 fold change and 3.97 fold change and 2.306 fold change.

For the origin of these results see article PMC10721329, “Quisinostat is a brain-penetrant radiosensitizer in glioblastoma” (JCI Insight, 2023).
